Data set [1] addresses T1, NcCAR (Neurospora crassa, UniProt Q7RW48).
T1 construct: gene NCU05000; full length, codon-optimized gene, N-terminal TEV-cleavable His-tag (removed for kinetics), pETDUET1, co-expressed with E. coli phosphopantetheinyl transferase (CAQ31055.1) in E. coli BL21 (DE3) Star; 120 kDa
Description: spectrophotometric NADPH depletion assay, […] nm, initial rates. The format is biochemical. Particulars: apparent, ATP, MgCl2, MES buffer pH 6.0, 28 °C, 5% v/v DMSO.

For data set [2], the target named is T1, NcCAR. As to the kind of experiment: time-resolved […] NMR of cinnamic acid reduction; relief of inhibition by pyrophosphatase. In kind it is biochemical. Particulars: co-product inhibition, inferred, ATP, NADPH, MgCl2, Tris-HCl pH 7.5.
The test system of a further data set is O=C(O)c1ccc2c(c1)OCO2. Description: purified protein. In kind it is biochemical, Neurospora crassa. As to conditions: apparent, ATP, NADPH, MgCl2, MES buffer pH 6.0, 28 °C, substrate in water with equimolar KOH.

T1 sequence (Q7RW48 whole entry): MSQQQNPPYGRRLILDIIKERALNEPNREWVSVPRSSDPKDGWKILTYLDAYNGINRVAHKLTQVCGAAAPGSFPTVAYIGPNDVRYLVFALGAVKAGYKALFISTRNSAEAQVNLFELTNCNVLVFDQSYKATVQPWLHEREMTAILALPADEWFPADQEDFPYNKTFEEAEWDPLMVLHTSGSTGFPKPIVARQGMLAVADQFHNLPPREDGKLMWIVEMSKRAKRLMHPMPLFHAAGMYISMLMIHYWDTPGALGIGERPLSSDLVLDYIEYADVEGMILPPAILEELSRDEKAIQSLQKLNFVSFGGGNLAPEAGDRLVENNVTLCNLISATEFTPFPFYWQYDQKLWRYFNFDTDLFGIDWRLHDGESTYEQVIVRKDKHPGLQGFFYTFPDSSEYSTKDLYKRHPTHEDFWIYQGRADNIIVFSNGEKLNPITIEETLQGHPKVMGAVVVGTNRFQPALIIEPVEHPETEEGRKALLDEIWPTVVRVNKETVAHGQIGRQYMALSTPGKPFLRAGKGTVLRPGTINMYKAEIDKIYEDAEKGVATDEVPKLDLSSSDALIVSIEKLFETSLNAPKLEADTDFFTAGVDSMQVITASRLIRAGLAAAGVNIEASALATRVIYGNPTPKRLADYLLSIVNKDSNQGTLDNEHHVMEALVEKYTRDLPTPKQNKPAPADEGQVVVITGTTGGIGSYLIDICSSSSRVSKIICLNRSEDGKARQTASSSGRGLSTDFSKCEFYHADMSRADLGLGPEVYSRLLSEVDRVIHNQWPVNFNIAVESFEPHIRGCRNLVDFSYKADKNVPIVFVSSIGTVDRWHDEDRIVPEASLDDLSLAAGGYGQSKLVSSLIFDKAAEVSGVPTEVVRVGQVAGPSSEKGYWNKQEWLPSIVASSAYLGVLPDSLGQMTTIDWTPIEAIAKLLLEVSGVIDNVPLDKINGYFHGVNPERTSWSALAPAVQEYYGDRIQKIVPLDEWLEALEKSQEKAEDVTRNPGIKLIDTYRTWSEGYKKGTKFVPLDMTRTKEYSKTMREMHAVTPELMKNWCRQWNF

A word on the Km: it is the concentration of substrate that gives half-maximal velocity. `O=C(O)/C=C/c1ccccc1` [1a, cinnamic acid]: the Km at NcCAR [1] is 445 ± 50 µM. `O=P(O)(O)OP(=O)(O)O` [pyrophosphate]: the “time-resolved 31P NMR of cinnamic acid reduction; relief of inhibition by pyroph” value on NcCAR [2] is on record as “these results indicate the inhibition of NcCAR by the co‐product pyrophosphate”. Broadly, the kcat is the number of substrate molecules converted per active site and unit of time at saturation. Regarding NcCAR (Neurospora crassa OR74A), in the data set with O=C(O)c1ccc2c(c1)OCO2, the Km came to 173 ± 22 µM and the kcat was 7.46 s⁻¹.

Source of the values: paper PMC5129534, “Selective Enzymatic Transformation to Aldehydes in vivo by Fungal Carboxylate Reductase from Neurospora crassa” (Advanced Synthesis & Catalysis, 2016).
